Measurements from PubChem BioAssay AID1919004 (Molecular Pharmacology Branch, DTP, NCI, 2023).
pIC50: −log10 of the molar value.

Test system: 883617-216-R-J1-PDC complex spheroids, growth, % test/control
Experiment: Anticancer human tumor 883617-216-R-J1-PDC patient-derived bladder carcinoma cell line growth inhibition [AhR]
Settings: for pIC50: curve of first compound; for viability, T/C: stronger effect = lower value
Procedure, shortened: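 Agents were dosed in half-log steps down from roughly clinical Cmax, or from 10 microM where Cmax was unknown, alone and with AhR antagonists. Read-out: percent test/control growth of tumor spheroids containing HUVEC and MSC stromal cells.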

[1] = second compound 0.1 µM, first compound 0.0316 µM
[2] = second compound 0.1 µM, first compound 0.1 µM
[3] = second compound 0.1 µM, first compound 0.316 µM
[4] = second compound 0.1 µM, first compound 1 µM
[5] = second compound 0.1 µM, first compound 3.16 µM
[6] = second compound 0.1 µM, first compound 10 µM
[7] = second compound 0.316 µM, first compound 0.0316 µM
[8] = second compound 0.316 µM, first compound 0.1 µM
[9] = second compound 0.316 µM, first compound 0.316 µM
[10] = second compound 0.316 µM, first compound 1 µM
[11] = second compound 0.316 µM, first compound 3.16 µM
[12] = second compound 0.316 µM, first compound 10 µM
[13] = second compound 1 µM, first compound 0.0316 µM
[14] = second compound 1 µM, first compound 0.1 µM
[15] = second compound 1 µM, first compound 0.316 µM
[16] = second compound 1 µM, first compound 1 µM
[17] = second compound 1 µM, first compound 3.16 µM
[18] = second compound 1 µM, first compound 10 µM
[19] = second compound 3.16 µM, first compound 0.0316 µM
[20] = second compound 3.16 µM, first compound 0.1 µM
[21] = second compound 3.16 µM, first compound 0.316 µM
[22] = second compound 3.16 µM, first compound 1 µM
[23] = second compound 3.16 µM, first compound 3.16 µM
[24] = second compound 3.16 µM, first compound 10 µM
[25] = second compound 10 µM, first compound 0.0316 µM
[26] = second compound 10 µM, first compound 0.1 µM
[27] = second compound 10 µM, first compound 0.316 µM
[28] = second compound 10 µM, first compound 1 µM
[29] = second compound 10 µM, first compound 3.16 µM
[30] = second compound 10 µM, first compound 10 µM
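Also: exposure lasted 7 days after dosing on day 3 of spheroid growth.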

Structure (SMILES): CC(C)c1c(-c2ccccc2)nc2c(C#N)c[nH]n2c1=O + Cc1cncc(-c2nc(NCCc3c[nH]c4ccccc34)c3ncn(C(C)C)c3n2)c1
- pIC50 (second compound 0.1 µM): < 5.00
- pIC50 (second compound 0.316 µM): < 5.00
- pIC50 (second compound 1 µM): < 5.00
- pIC50 (second compound 3.16 µM): < 5.00
- pIC50 (second compound 10 µM): 7.17
- viability, T/C [1]: 98.7%
- viability, T/C [2]: 93.8%
- viability, T/C [3]: 99.3%
- viability, T/C [4]: 99.7%
- viability, T/C [5]: 92.6%
- viability, T/C [6]: 91.7%
- viability, T/C [7]: 107%
- viability, T/C [8]: 91.8%
- viability, T/C [9]: 93%
- viability, T/C [10]: 97.6%
- viability, T/C [11]: 103%
- viability, T/C [12]: 94%
- viability, T/C [13]: 96.6%
- viability, T/C [14]: 114%
- viability, T/C [15]: 107%
- viability, T/C [16]: 104%
- viability, T/C [17]: 102%
- viability, T/C [18]: 111%
- viability, T/C [19]: 105%
- viability, T/C [20]: 109%
- viability, T/C [21]: 115%
- viability, T/C [22]: 105%
- viability, T/C [23]: 111%
- viability, T/C [24]: 121%
- viability, T/C [25]: 53.4%
- viability, T/C [26]: 48.5%
- viability, T/C [27]: 48.4%
- viability, T/C [28]: 41.7%
- viability, T/C [29]: 43.5%
- viability, T/C [30]: 55.4%

Structure (SMILES): CC1COCCN1c1cc(-c2ccnn2C)c2ccnc(-c3ccn[nH]3)c2n1 (stereo not given) + Cc1cncc(-c2nc(NCCc3c[nH]c4ccccc34)c3ncn(C(C)C)c3n2)c1
- pIC50 (second compound 0.1 µM): < 6.00
- pIC50 (second compound 0.316 µM): < 6.00
- pIC50 (second compound 1 µM): < 6.00
- pIC50 (second compound 3.16 µM): < 6.00
- pIC50 (second compound 10 µM): > 8.50
- viability, T/C (second compound 0.1 µM, first compound 0.00316 µM): 94.9%
- viability, T/C (second compound 0.1 µM, first compound 0.01 µM): 92.8%
- viability, T/C [1]: 83.7%
- viability, T/C [2]: 76.5%
- viability, T/C [3]: 61.5%
- viability, T/C [4]: 53.9%
- viability, T/C (second compound 0.316 µM, first compound 0.00316 µM): 101%
- viability, T/C (second compound 0.316 µM, first compound 0.01 µM): 103%
- viability, T/C [7]: 98.5%
- viability, T/C [8]: 77.3%
- viability, T/C [9]: 60.2%
- viability, T/C [10]: 54.5%
- viability, T/C (second compound 1 µM, first compound 0.00316 µM): 96.1%
- viability, T/C (second compound 1 µM, first compound 0.01 µM): 107%
- viability, T/C [13]: 95.9%
- viability, T/C [14]: 76%
- viability, T/C [15]: 70.3%
- viability, T/C [16]: 60.5%
- viability, T/C (second compound 3.16 µM, first compound 0.00316 µM): 115%
- viability, T/C (second compound 3.16 µM, first compound 0.01 µM): 113%
- viability, T/C [19]: 117%
- viability, T/C [20]: 87.6%
- viability, T/C [21]: 72.7%
- viability, T/C [22]: 55.9%
- viability, T/C (second compound 10 µM, first compound 0.00316 µM): 45.3%
- viability, T/C (second compound 10 µM, first compound 0.01 µM): 50.8%
- viability, T/C [25]: 51.5%
- viability, T/C [26]: 39.8%
- viability, T/C [27]: 30.9%
- viability, T/C [28]: 27.4%

Structure (SMILES): COc1ccc([C@@H](O)c2cc(-c3ncnc4cc(N5CCOCC5)ccc34)c(F)cc2Cl)nn1 + Cc1cncc(-c2nc(NCCc3c[nH]c4ccccc34)c3ncn(C(C)C)c3n2)c1
- pIC50 (second compound 0.1 µM): 5.58
- pIC50 (second compound 0.316 µM): 5.62
- pIC50 (second compound 1 µM): 5.39
- pIC50 (second compound 3.16 µM): 5.45
- pIC50 (second compound 10 µM): > 7.50
- viability, T/C [1]: 89.8%
- viability, T/C [2]: 82.6%
- viability, T/C [3]: 78.2%
- viability, T/C [4]: 67.5%
- viability, T/C [5]: 45.5%
- viability, T/C [6]: 34.1%
- viability, T/C [7]: 93.6%
- viability, T/C [8]: 103%
- viability, T/C [9]: 87.9%
- viability, T/C [10]: 67.1%
- viability, T/C [11]: 45.6%
- viability, T/C [12]: 35.3%
- viability, T/C [13]: 100%
- viability, T/C [14]: 95.4%
- viability, T/C [15]: 85.9%
- viability, T/C [16]: 76.7%
- viability, T/C [17]: 50.7%
- viability, T/C [18]: 39.3%
- viability, T/C [19]: 103%
- viability, T/C [20]: 102%
- viability, T/C [21]: 94.9%
- viability, T/C [22]: 79.9%
- viability, T/C [23]: 51.4%
- viability, T/C [24]: 33.3%
- viability, T/C [25]: 39.6%
- viability, T/C [26]: 39.3%
- viability, T/C [27]: 38.9%
- viability, T/C [28]: 30.4%
- viability, T/C [29]: 19.2%
- viability, T/C [30]: 10.9%
